Where two headings read alike, the source gives them in different places.
Columns and labels:
ASIC1a = molecular target: T1, ASIC1a (Homo sapiens, UniProt P78348); assay: Two-electrode voltage clamp of acid-induced currents in Xenopus laevis oocytes; assay type: cell-based; design: expressed in transfected cells; host or cells: Xenopus laevis oocytes, nuclear microinjection of an expression vector such as pCDNA3; settings: for inhibition at 50 µM: Xenopus oocytes, read-out: % inh. at 50 μM (Xo)
T1 sequence (P78348 1-528): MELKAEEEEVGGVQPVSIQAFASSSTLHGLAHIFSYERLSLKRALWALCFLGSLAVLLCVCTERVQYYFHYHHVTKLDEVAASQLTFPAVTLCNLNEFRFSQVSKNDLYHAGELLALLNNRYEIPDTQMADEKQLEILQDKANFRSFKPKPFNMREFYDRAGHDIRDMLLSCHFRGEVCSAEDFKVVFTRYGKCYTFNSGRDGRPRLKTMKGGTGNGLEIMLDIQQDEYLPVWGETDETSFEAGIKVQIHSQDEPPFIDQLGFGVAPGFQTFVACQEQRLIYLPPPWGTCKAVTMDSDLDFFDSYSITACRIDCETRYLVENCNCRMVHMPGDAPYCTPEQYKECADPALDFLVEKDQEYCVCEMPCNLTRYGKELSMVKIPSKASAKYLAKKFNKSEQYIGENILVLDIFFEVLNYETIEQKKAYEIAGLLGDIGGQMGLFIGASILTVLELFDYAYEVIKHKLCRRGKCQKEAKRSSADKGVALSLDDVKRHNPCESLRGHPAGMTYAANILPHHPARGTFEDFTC
Procedure: Screening and Bioanalysis of ASIC Antagonists in Xenopus laevis oocytes
This example describes the in vitro assessment of the activity of the compounds of the present invention.
Two-electrode voltage clamp electrophysiological assays in Xenopus laevis oocytes expressing gated ion channels are performed as follows:
Oocytes are surgically removed from adult Xenopus laevis and treated for 2 h at room temperature with 1 mg/ml type I collagenase (Sigma) in Barth's solution under mild agitation. Selected oocytes at stage IV-V are defolliculated manually before nuclear microinjection of 2.5-5 ng of a suitable expression vector, such as pCDNA3, comprising the nucleotide sequence encoding a gated ion channel subunit protein. In such an experiment, the oocytes express homomultimeric proton-gated ion channels on their surface. In an alternate experiment, one, two, three or more vectors comprising the coding sequences for distinct gated ion channel subunits are co-injected in the oocyte nuclei. In the latter case, oocytes express heteromultimeric proton-gated ion channels. For example, ASIC2a and/or ASIC3 subunits in pcDNA3 vector are co-injected at a 1:1 cDNA ratio. After 2-4 days of expression at 19° C. in Barth's solution containing […] gentamicin and 1.8 mM CaCl2, gated ion channels are activated by applying an acidic solution (pH<7) and currents are recorded in a two electrode voltage-clamp configuration, using an OC-725B amplifier (Warner Instruments). Currents are acquired and digitized at 500 Hz on an Apple Imac G3 computer with an A/D NB-MIO-16XL interface (National Instruments) and recorded traces are post-filtered at 100 Hz in Axograph (Axon Instruments) (Neher, E. and Sakmann, B. (1976) Nature 260:799-802). Once impaled with the microelectrodes, oocytes are continuously superfused at 10-12 ml/min with a modified Ringer's solution containing 97 mM NaCl, 2 mM KCl, 1.8 mM CaCl2, and 10 mM HEPES brought to pH 7.4 with NaOH (Control Ringer). Test Ringer solution is prepared by replacing HEPES with MES and adjusting the pH to the desired acidic value. Compounds of the present invention are prepared in both the Control and Test Ringer solutions and applied to oocytes at room temperature through a computer-controlled switching valve system. Osmolarity of all solutions is adjusted to 235 mOsm with choline chloride. Similarly, recordings can also be acquired in an automated multichannel oocytes system as the OpusExpress™ (Molecular Devices, Sunnyvale, USA).
FIGS. 1A and 2A illustrate the inhibitory effects of Compounds 12 and 44 on acid-induced activation of recombinant homomeric hASIC1a channels. FIGS. 1A and 2A show the dose-dependent inhibition of the acid-induced hASIC1a currents recorded from Xenopus laevis oocytes using the two-electrode voltage clamp method (as described in this example) in the absence or presence of increasing concentration of the compounds.

[1] = test system: thermal hyperalgesia from carrageenan-induced acute paw inflammation; assay: Carrageenan model, thermal hyperalgesia (Hargreaves' assay); assay type: in vivo; settings: rat, 20 mg/kg s.c. 30 min prior to carrageenan, 2-3 hours post-carrageenan
Procedure: Carrageenan Model for Pain
Acute inflammatory hyperalgesia is induced in rats by unilateral injection of […] of a 3% solution of 1-carrageenan into the plantar surface of the left hind paw 2-4 h prior to testing. Thermal nociceptive thresholds are determined according to the method described elsewhere (Hargreaves et al., 1988). Briefly, through the glass surface, a radiant heat source (8 V, 50 W projector bulb) is focused onto the plantar surface of the hind paw. The rat's paw-withdrawal latency to this stimulus is recorded to the nearest 0.1 s. Each latency score is an average of three trials, which are separated by at least 5 min. In all rats, both the injured and uninjured hind paws are similarly tested, allowing direct comparisons between inflamed and non-inflamed paws.
FIG. 7 illustrates the effect of Compound 44 (20 mg/kg s.c.) on the thermal hyperalgesia (observed in the Hargreaves' assay) resulting from an acute paw inflammation caused by the intraplantar injection of 150 μl of a 3% solution of λ-carrageenan. Compound 44 was given 30 min prior to carrageenan injection and thermal hyperalgesia was tested 2, 3, and 4 h post carrageenan injection.

Structure (SMILES): CCN1CCc2c(-c3ccccc3)cc(C#N)c(N)c2C1 [Compound 12, 8-Amino-2-ethyl-5-phenyl-1,2,3,4-tetrahydro-isoquinoline-7-carbonitrile]
- inhibition at 50 µM (ASIC1a): > 50%
- IC50 (ASIC1a; Xenopus laevis oocytes, three point dose-response, read-out: IC50, half maximal inhibition of the acid-evoked response in hASIC1a): 5.9 µM

Structure (SMILES): CCN1CCc2c(-c3cc(Cl)ccc3OC)cc(C#N)c(N)c2C1 [Compound 44]
- IC50 (ASIC1a): 8.5 µM
- inhibition at 50 µM (ASIC1a): > 50%
- effect on thermal hyperalgesia [1]: completely reversed

Reference: patent US20080004282A1, “Compositions and methods for modulating gated ion channels” (PainCeptor Pharma Corporation, priority 2006, published 2008)
